One block for each compound: values may come before it.
Assays:
Arabidopsis guard cells = conditions: loaded into Arabidopsis guard cells; cited from earlier work
[1] = test system: ca1ca4 leaf epidermis stomata; assay: abscisic acid-induced stomatal closing in leaf epidermis; format: cell-based, Arabidopsis thaliana
Protocol: FIG. 10A illustrates stomata in ca1ca4 double mutant leaves close in response to abscisic acid; n=3 experiments, 30 stomata/experiment and condition. Error bars depict means±s.e.m. FIG. 10B illustrates CO2-induced stomatal movements are impaired in ca1ca4 double mutant leaves and in wild-type leaf epidermis treated with the carbonic anhydrase inhibitor 6-ethoxy-2-benzothiazolesulphonamide (EZA) (n=6, 30 stomata/sample); see e.g., Becker et al., 2007.
To determine whether the impaired CO2 responses in intact leaves (see FIG. 9C, FIG. 9D, FIG. 9E) are linked to stomatal movements, CO2 responses were analyzed in leaf epidermis. CO2-induced stomatal movements were impaired in ca1ca4 as compared to wild-type, as illustrated in FIG. 10B. Furthermore, when wild-type leaf epidermis were treated for 30 min with the membrane-permeable CA inhibitor EZA (see, e.g., Becker et al., 2007), CO2-induced stomatal opening and closing were inhibited, which correlates with a role for carbonic anhydrases in CO2 sensing, rather than a long-term developmental effect of CA gene disruption on the rapid CO2 response, as illustrated in FIG. 10B.

[2] = test system: wild-type leaf epidermis stomata; assay: CO2-induced stomatal movements in leaf epidermis treated with carbonic anhydrase inhibitor; format: cell-based, Arabidopsis thaliana; conditions: wild-type leaf epidermis treated for 30 min
[3] = test system: wild-type Arabidopsis thaliana plants; assay: Norflurazon bleaching of leaves and CO2-induced stomatal movements in albino leaves; format: in vivo
Protocol: To further analyze whether intact photosynthesis is required for CO2 regulation of stomatal movements, another approach was carried out.
FIG. 13A illustrates an image of chlorophyll-deficient albino wild-type leaves devoid of functional chloroplasts were generated by application of the carotenoid biosynthesis inhibitor norflurazon. The absence of chlorophyll in albino guard cells compared to wild-type was visualized by confocal microscopy (FIG. 13B graphically illustrates data) and quantified by image analysis of the chlorophyll fluorescence intensity (FIG. 13C graphically illustrates data) (n=3, 12 stomata/sample.). FIG. 13D graphically illustrates data showing CO2-induced stomatal movements in albino versus control plant leaves (n=7, 50 stomata/sample). Error bars depict means±s.e.m.

Compound: O=C(O)CN(CC(=O)O)c1ccccc1OCCOc1ccccc1N(CC(=O)O)CC(=O)O [BAPTA]
spontaneous calcium transients in guard cells (Arabidopsis guard cells): effectively inhibits

Compound: CC1=CC(=O)CC(C)(C)[C@@]1(O)/C=C/C(C)=C\C(=O)O [abscisic acid]
ABA-induced stomatal closing [1]: completely functional

CO2-induced stomatal opening and closing [2]: inhibited
Compound: CCOc1ccc2nc(S(N)(=O)=O)sc2c1 [EZA, 6-ethoxy-2-benzothiazolesulphonamide]

Compound: CNc1cnn(-c2cccc(C(F)(F)F)c2)c(=O)c1Cl [Norflurazon]
stomatal CO2 response to both high and low [CO2] in intact leaves ([3]; albino leaves without functional chloroplasts): not affected | leaf phenotype of newly emerging leaves ([3]; watering 3 to 4 week-old wild-type plants): albino chlorophyll-deficient wild-type leaves devoid of functional chloroplasts
